Test results taken from patent US12377071B2, “Methods of treating conditions related to the S1P1 receptor” (Arena Pharmaceuticals, Inc., priority 2015, dated 2025).
“Also recorded” adds a separate entry of the source. Where a name gives a salt, the structure may show the parent alone.

Key:
[1] = clinical trials; cited from earlier work
healthy adult subjects [2] = assay: Multiple ascending dose study: safety assessments and adverse events
Method: (§1) The following safety assessments were conducted: physical examinations with ophthalmoscopy, clinical laboratory tests (serum chemistry, coagulation, and urinalysis), vital signs, continuous telemetry (12 lead ECG), safety ECGs, pulmonary function testing (PFT), serum protein electrophoresis (SPEP) and serum immunoelectrophoresis (IEP), and adverse event reporting.

healthy adult subjects [3] = assay: Multiple ascending dose study: systolic BP, safety population; type: in vivo, human; settings: Day 1 to Day 28
Method: (§2) A randomized, double-blind, placebo-controlled, sequential, ascending, multiple dose study to assess the safety, tolerability, and pharmacokinetics of the L-arginine salt of Compound 1 administered to healthy adult subjects was conducted. This study was designed to evaluate the safety, tolerability, pharmacokinetics, and pharmacodynamics of the L-arginine salt of Compound 1.
(§3) Cohort 1 was dosed with 0.7 mg (by administering two 0.35 mg formulations) for 21 days. Cohort 2 was dosed with 1.35 mg (by administering both a 0.35 mg formulation and a 1 mg formulation) for 21 days. Cohort 3 was dosed with 2.0 mg for 21 days. Cohort 4 was dosed with 0.35 mg for 7 days and then with 2.0 mg for 14 days. Cohort 5 was dosed with 0.5 for 7 days and then with 3.0 mg (by administering both a 1 mg formulation and a 2 mg formulation) for 14 days.
as §1

lymphocytes = assay: Multiple ascending dose study: lymphocyte counts, safety population; type: in vivo, human; settings: for Lymphocytes, On Treatment Mean / Lymphocytes, Percent Change from Baseline, Mean / Lymphocytes, Percent Change from Baseline, Median / Lymphocytes, Percent Change from Baseline, Min, Max: day 21
Method: as §2, §3

healthy adult subjects [4] = assay: Multiple ascending dose study: heart rate, safety population; type: in vivo, human; settings: Day 1 to Day 28
Method: as §2, §3, §1

healthy adult subjects [5] = assay: Multiple ascending dose study: diastolic BP, safety population; type: in vivo, human; settings: Day 1 to Day 28
Method: as §2, §3, §1

healthy adult subjects [6] = assay: Multiple ascending dose study: QTc, safety population; type: in vivo, human; settings: Day 1 to Day 23
Method: as §2, §3, §1

[7] = 0.35 mg for 7 days then 2.0 mg for 14 days
[8] = 0.5 mg for 7 days then 3.0 mg for 14 days

## CCCCCCCCc1ccc(CCC(N)(CO)CO)cc1 [FTY720, fingolimod]
[1]
  Adverse event: transient asymptomatic bradycardia

## O=C(O)C[C@H]1CCc2c1[nH]c1ccc(OCc3ccc(C4CCCC4)c(C(F)(F)F)c3)cc21 [L-arginine salt of Compound 1]
Healthy adult subjects [2]; 1.35 mg dose
  Subjects with mildly abnormal reproducible (NCS) pulmonary function test findings (FEV1 below 80%, FVC) post-dose: One
Healthy adult subjects [2]; 2mg group
  Subjects with mildly abnormal non-clinically significant post-treatment liver function tests (elevated ALT & AST <2× ULN): 1 subject
  Subjects with new 1st degree atrioventricular block: 1 subject
Healthy adult subjects [2]; 0.5, 3 mg group
  Subjects with new 1st degree atrioventricular block: 1 subject
Healthy adult subjects [2]; 0.5 escalating to 3 mg group
  Subjects with mildly abnormal non-clinically significant post-treatment liver function tests (elevated ALT & AST <2× ULN): 1 subject
Healthy adult subjects [2]; multiple dose
  Discontinuation due to an adverse event: No subjects were discontinued due to an adverse event
  Most common adverse events: contact dermatitis and leukopenia, followed by constipation, diarrhea, nausea, and abdominal pain
  Ophthalmoscopy findings: No clinically significant change from baseline
  Severity of adverse events: majority of adverse events were mild
  Vital signs, ECGs, PFTs, ophthalmoscopy, clinical laboratory tests: no other clinically significant safety issues
Healthy adult subjects [2]; multiple dose, all dose levels
  SAEs or deaths: No SAEs or deaths
  Second degree heart block: No second degree heart block
Healthy adult subjects [2]; multiple dose, all dose levels (0.7 to 3.0 mg, 21 days)
  Tolerability: tolerated at all dose levels; also recorded: well tolerated at all doses tested
Healthy adult subjects [3]; [7]
  Minimum Value for Post-dose Systolic BP, Change from Baseline, Mean: −13.00 mmHg
  Minimum Value for Post-dose Systolic BP, Change from Baseline, Median: −13.00 mmHg
  Minimum Value for Post-dose Systolic BP, Change from Baseline, Min, Max: −28.00 to 0.00 mmHg
  Minimum Value for Post-dose Systolic BP, On Treatment Mean: 94.30 mmHg
Healthy adult subjects [3]; [8]
  Minimum Value for Post-dose Systolic BP, Change from Baseline, Mean: −7.80 mmHg
  Minimum Value for Post-dose Systolic BP, Change from Baseline, Median: −5.00 mmHg
  Minimum Value for Post-dose Systolic BP, Change from Baseline, Min, Max: −18.00 to 5.00 mmHg
  Minimum Value for Post-dose Systolic BP, On Treatment Mean: 93.20 mmHg
Healthy adult subjects [3]; 0.7 mg for 21 days
  Minimum Value for Post-dose Systolic BP, Change from Baseline, Mean: −9.70 mmHg
  Minimum Value for Post-dose Systolic BP, Change from Baseline, Median: −9.50 mmHg
  Minimum Value for Post-dose Systolic BP, Change from Baseline, Min, Max: −16.00 to −1.00 mmHg
  Minimum Value for Post-dose Systolic BP, On Treatment Mean: 96.10 mmHg
Healthy adult subjects [3]; 1.35 mg for 21 days
  Minimum Value for Post-dose Systolic BP, Change from Baseline, Mean: −8.90 mmHg
  Minimum Value for Post-dose Systolic BP, Change from Baseline, Median: −8.00 mmHg
  Minimum Value for Post-dose Systolic BP, Change from Baseline, Min, Max: −22.00 to 3.00 mmHg
  Minimum Value for Post-dose Systolic BP, On Treatment Mean: 100.10 mmHg
Healthy adult subjects [3]; 2.0 mg for 21 days
  Minimum Value for Post-dose Systolic BP, Change from Baseline, Mean: −9.80 mmHg
  Minimum Value for Post-dose Systolic BP, Change from Baseline, Median: −9.00 mmHg
  Minimum Value for Post-dose Systolic BP, Change from Baseline, Min, Max: −18.00 to −4.00 mmHg
  Minimum Value for Post-dose Systolic BP, On Treatment Mean: 90.80 mmHg
lymphocytes; [7]
  Lymphocytes, On Treatment Mean: 0.62 10^3/μl
  Lymphocytes, Percent Change from Baseline, Mean: −67.34%
  Lymphocytes, Percent Change from Baseline, Median: −67.54%
  Lymphocytes, Percent Change from Baseline, Min, Max: −77.27 to −57.14%
lymphocytes; [8]
  Lymphocytes, On Treatment Mean: 0.62 10^3/μl
  Lymphocytes, Percent Change from Baseline, Mean: −66.16%
  Lymphocytes, Percent Change from Baseline, Median: −65.02%
  Lymphocytes, Percent Change from Baseline, Min, Max: −85.19 to −53.85%
lymphocytes; 0.7 mg for 21 days
  Lymphocytes, On Treatment Mean: 1.06 10^3/μl
  Lymphocytes, Percent Change from Baseline, Mean: −41.03%
  Lymphocytes, Percent Change from Baseline, Median: −40.37%
  Lymphocytes, Percent Change from Baseline, Min, Max: −55.56 to −23.08%
lymphocytes; 1.35 mg for 21 days
  Lymphocytes, On Treatment Mean: 0.89 10^3/μl
  Lymphocytes, Percent Change from Baseline, Mean: −53.43%
  Lymphocytes, Percent Change from Baseline, Median: −51.85%
  Lymphocytes, Percent Change from Baseline, Min, Max: −68.75 to −30.77%
lymphocytes; 2.0 mg for 21 days
  Lymphocytes, On Treatment Mean: 0.62 10^3/μl
  Lymphocytes, Percent Change from Baseline, Mean: −68.81%
  Lymphocytes, Percent Change from Baseline, Median: −69.44%
  Lymphocytes, Percent Change from Baseline, Min, Max: −80.00 to −55.56%
lymphocytes; multiple dose, 0.7 to 3.0 mg
  Lymphocyte lowering, dose dependence: dose-dependent effect on lymphocyte lowering with maximal effect at 2 mg dose
Healthy adult subjects [4]; [7]
  Minimum Value for Post-dose Heart Rate, Change from Baseline, Mean: −10.60 BPM
  Minimum Value for Post-dose Heart Rate, Change from Baseline, Median: −7.00 BPM
  Minimum Value for Post-dose Heart Rate, Change from Baseline, Min, Max: −35.00 to 3.00 BPM
  Minimum Value for Post-dose Heart Rate, On Treatment Mean: 52.00 BPM
Healthy adult subjects [4]; [8]
  Minimum Value for Post-dose Heart Rate, Change from Baseline, Mean: −7.30 BPM
  Minimum Value for Post-dose Heart Rate, Change from Baseline, Median: −6.50 BPM
  Minimum Value for Post-dose Heart Rate, Change from Baseline, Min, Max: −14.00 to −2.00 BPM
  Minimum Value for Post-dose Heart Rate, On Treatment Mean: 53.80 BPM
Healthy adult subjects [4]; 0.7 mg for 21 days
  Minimum Value for Post-dose Heart Rate, Change from Baseline, Mean: −5.50 BPM
  Minimum Value for Post-dose Heart Rate, Change from Baseline, Median: −5.00 BPM
  Minimum Value for Post-dose Heart Rate, Change from Baseline, Min, Max: −12.00 to −1.00 BPM
  Minimum Value for Post-dose Heart Rate, On Treatment Mean: 54.20 BPM
Healthy adult subjects [4]; 1.35 mg for 21 days
  Minimum Value for Post-dose Heart Rate, Change from Baseline, Mean: −6.20 BPM
  Minimum Value for Post-dose Heart Rate, Change from Baseline, Median: −5.00 BPM
  Minimum Value for Post-dose Heart Rate, Change from Baseline, Min, Max: −18.00 to 3.00 BPM
  Minimum Value for Post-dose Heart Rate, On Treatment Mean: 54.40 BPM
Healthy adult subjects [4]; 2.0 mg for 21 days
  Minimum Value for Post-dose Heart Rate, Change from Baseline, Mean: −8.30 BPM
  Minimum Value for Post-dose Heart Rate, Change from Baseline, Median: −7.50 BPM
  Minimum Value for Post-dose Heart Rate, Change from Baseline, Min, Max: −16.00 to −3.00 BPM
  Minimum Value for Post-dose Heart Rate, On Treatment Mean: 51.00 BPM
Healthy adult subjects [5]; [7]
  Minimum Value for Post-dose Diastolic BP, Change from Baseline, Mean: −7.90 mmHg
  Minimum Value for Post-dose Diastolic BP, Change from Baseline, Median: −6.00 mmHg
  Minimum Value for Post-dose Diastolic BP, Change from Baseline, Min, Max: −19.00 to −1.00 mmHg
  Minimum Value for Post-dose Diastolic BP, On Treatment Mean: 50.80 mmHg
Healthy adult subjects [5]; [8]
  Minimum Value for Post-dose Diastolic BP, Change from Baseline, Mean: −6.30 mmHg
  Minimum Value for Post-dose Diastolic BP, Change from Baseline, Median: −7.00 mmHg
  Minimum Value for Post-dose Diastolic BP, Change from Baseline, Min, Max: −13.00 to 3.00 mmHg
  Minimum Value for Post-dose Diastolic BP, On Treatment Mean: 50.20 mmHg
Healthy adult subjects [5]; 0.7 mg for 21 days
  Minimum Value for Post-dose Diastolic BP, Change from Baseline, Mean: −6.10 mmHg
  Minimum Value for Post-dose Diastolic BP, Change from Baseline, Median: −6.00 mmHg
  Minimum Value for Post-dose Diastolic BP, Change from Baseline, Min, Max: −16.00 to 2.00 mmHg
  Minimum Value for Post-dose Diastolic BP, On Treatment Mean: 56.00 mmHg
Healthy adult subjects [5]; 1.35 mg for 21 days
  Minimum Value for Post-dose Diastolic BP, Change from Baseline, Mean: −5.20 mmHg
  Minimum Value for Post-dose Diastolic BP, Change from Baseline, Median: −7.50 mmHg
  Minimum Value for Post-dose Diastolic BP, Change from Baseline, Min, Max: −11.00 to 6.00 mmHg
  Minimum Value for Post-dose Diastolic BP, On Treatment Mean: 53.70 mmHg
Healthy adult subjects [5]; 2.0 mg for 21 days
  Minimum Value for Post-dose Diastolic BP, Change from Baseline, Mean: −11.20 mmHg
  Minimum Value for Post-dose Diastolic BP, Change from Baseline, Median: −9.00 mmHg
  Minimum Value for Post-dose Diastolic BP, Change from Baseline, Min, Max: −21.00 to −4.00 mmHg
  Minimum Value for Post-dose Diastolic BP, On Treatment Mean: 45.30 mmHg
Healthy adult subjects [6]; [7]
  Maximum Value for Post-dose QTc, Change from Baseline, Mean: −0.10 MS
  Maximum Value for Post-dose QTc, Change from Baseline, Median: 0.50 MS
  Maximum Value for Post-dose QTc, Change from Baseline, Min, Max: −19.00 to 17.00 MS
  Maximum Value for Post-dose QTc, On Treatment Mean: 411.10 MS
Healthy adult subjects [6]; [8]
  Maximum Value for Post-dose QTc, Change from Baseline, Mean: 5.60 MS
  Maximum Value for Post-dose QTc, Change from Baseline, Median: 5.00 MS
  Maximum Value for Post-dose QTc, Change from Baseline, Min, Max: −5.00 to 15.00 MS
  Maximum Value for Post-dose QTc, On Treatment Mean: 425.10 MS
Healthy adult subjects [6]; 0.7 mg for 21 days
  Maximum Value for Post-dose QTc, Change from Baseline, Mean: 3.60 MS
  Maximum Value for Post-dose QTc, Change from Baseline, Median: 3.50 MS
  Maximum Value for Post-dose QTc, Change from Baseline, Min, Max: −8.00 to 16.00 MS
  Maximum Value for Post-dose QTc, On Treatment Mean: 418.40 MS
Healthy adult subjects [6]; 1.35 mg for 21 days
  Maximum Value for Post-dose QTc, Change from Baseline, Mean: 8.20 MS
  Maximum Value for Post-dose QTc, Change from Baseline, Median: 6.00 MS
  Maximum Value for Post-dose QTc, Change from Baseline, Min, Max: −5.00 to 25.00 MS
  Maximum Value for Post-dose QTc, On Treatment Mean: 423.60 MS
Healthy adult subjects [6]; 2.0 mg for 21 days
  Maximum Value for Post-dose QTc, Change from Baseline, Mean: 4.00 MS
  Maximum Value for Post-dose QTc, Change from Baseline, Median: 4.50 MS
  Maximum Value for Post-dose QTc, Change from Baseline, Min, Max: −8.00 to 13.00 MS
  Maximum Value for Post-dose QTc, On Treatment Mean: 421.20 MS
